US20110064773A1, “PHARMACEUTICAL COMPOSITIONS COMPRISING A THYROID HORMON AND THEIR THERAPEUTIC USE” (UNIVERSITE JOSEPH FOURIER, priority 2007, published 2011)
Entries after “also recorded” stand apart in the source; their conditions may differ.

Experiments:
Assay type in all cases: in vivo, rat
[1] = tested on: Wistar rats; assay: Wistar rats treated with PTU and IOP (deiodinase inhibition, hypothyroid state) with or without rT3
Experimental: Thyroid Stimulating Hormone (TSH) and thyroxine (T4) were measured by radioimmunoassay with rat standards (RPA 554 Amersham bioscience, RIA FT4-immunotech, for TSH and T4 respectively).
In order to understand the mode of action of the treatments, Wistar rats were treated with pharmacological products that inhibit the synthesis and deiodination of thyroid hormones PTU and IOP.
Animals (Wistar) were submitted to a treatment by propyl-thiouracile (PTU in the drinking water) and iopanoic acid (IOP one sc-injection weekly) inducing a complete inhibition of all deiodinases (types I, II and III). Such treatment is responsible for the induction of a severe hypothyroid state. In addition this treatment impairs the peripheral metabolism of all thyroid hormones by deiodination. Some rats were also submitted to a sub-cutaneous administration of rT3 (2.5 μg/100 g). Three groups were constituted: controls, PTU+IOP and PTU+IOP+rT3 and duration of the experiment was 3 weeks.

[2] = tested on: n0STZ rats; assay: Oral glucose tolerance test (OGTT) and pancreas mass in n0STZ rats; settings: 2.5 μg/100 g BW
Experimental: N0STZ rats are diabetic non obese with moderate insulin-resistance, and have received an injection of streptozotocine just after the birth, said product killing pancreatic cells.
The glucose resistance of these animals was tested by an oral glucose tolerance test (OGTT) Animals were fed with 2 g/kg BW of glucose and the Glucose concentration and Insulin concentration in blood were measured.
The glucose concentration (FIG. 35) and insulin concentration (FIG. 36) were then measured for this time.

[3] = Blood rT3 dosage over 24 hours after administration; settings: Wistar rats
Experimental: Blood rT3 dosage. The rT3 concentration is measured for 24 hours in Wistar rats treated with a high dosage of rT3 by intra-peritoneal injection (IP, square), oral ingestion (per os, triangle) or subcutaneous injection (sc, star). Basal rT3 level is measured in animal treated with placebo (lozenge).
Wistar rats were treated with rT3 hormone by a daily intraperitoneal injection (IP) (25 μg/100 g BW), a daily sub-cutaneous injection (SC) (25 μg/100 g BW), or a per os administration included in the rat food (25 μg/100 g BW). The continuous and constant administration was performed by using a pellet (25 μg/100 g BW).

[4] = tested on: ZDF rats; assay: Body composition of ZDF rats
Text: (§1) At the end of the experimental period, animals were sacrificed by decapitation, in order to avoid the well-known effects of general anesthetics on mitochondrial metabolism. Blood samples were immediately collected and plasma was frozen for subsequent determination of serum metabolites and hormones. Liver, muscles and fat depots were quickly excised and weighed. Liver median lobe was rapidly freeze-clamped. Muscles (plantaris, soleus and gastrocnemius) were frozen in isopentane precooled in liquid nitrogen. Mesenteric fat consisted of adipose tissue surrounding the gastro-intestinal tract from the gastro-oesophageal sphincter to the end of the rectum with special care taken in distinguishing and removing the pancreas. Retroperitoneal fat pad was taken as the distinct depot behind each kidney along the lumbar muscles. Epididymal fat consisted of adipose tissue on top of the epididymis. For subcutaneous depot measurement, a rectangular piece of skin was taken on the right side of each animal from the median line of the abdomen between the spine and the right hip to the first rib. Interscapular brown adipose tissue was removed and dissected free from adjacent muscles and white adipose tissue. The heart ventricles, the right kidney and the spleen were also excised, weighed and frozen.

[5] = tested on: ZDF rats; assay: Plasma lipid profiles of ZDF rats; settings: 2.5 μg/100 g BW, day of sacrifice
Text: as §1
(§2) Glucose and 3-hydroxybutyrate (3-HB) were measured enzymatically and non esterified fatty acid (NEFA) by colorimetric assay (Wako Chemicals).
Triglycerides and cholesterol were measured by classical routine automate apparatus.
To better understand the lipid metabolism, lipid profiles of free fatty acid (FFA, FIG. 29), triglycerides (FIG. 30), cholesterol (FIG. 31) and high density lipoprotein (HDL, FIG. 32) were analysed.

[6] = tested on: ZDF rats; assay: Glycaemia, insulinaemia and pancreas mass in ZDF diabetic rats
Experimental: Rats were genetically obese normoglycemic (Zucker or Fa/Fa), 10-11 week-old diabetic rats (ZDF), genetic non-overweight diabetic (type 2 diabetes) rats (Goto-Kakizaki (GK) model), non-overweight diabetic (type 2 diabetes) rats n0STZ model or normal Wistar rats submitted to an 8-week high-fat high sucrose diet (a model of nutritional induction of insulin resistance).
The day of the study, after a fasted period overnight (18 h), blood samplings will be taken in awaked rats from the tail vein.
Insulin levels were determined with commercial kits (Linco Research).
as §2
ZDF diabetic rats are a good model for studying the anti-diabetic treatments, since these animals develop a major hyperglycaemia during their life due to the combination of moderate obesity and pancreas degeneracy. To date, treatments are ineffective when the hyperglycaemia is established.
Then ZDF rats were treated with low doses of rT3 for 21 days (2.5 μg/100 g BW/day) and the glycaemia, insulinaemia were measured after 8, 16 and 21 days.

[7] = tested on: Wistar rats; assay: De novo hepatic lipogenesis (stable isotopes); settings: rT3 2.5 μg/100 g BW
Text: To confirm this point, the rate of endogenous triglyceride synthesis by using stable isotopes has been assessed.

[8] = PTU+IOP alone vs placebo, or rT3 2.5 μg/100 g added to PTU+IOP
[9] = PTU+IOP alone, or rT3 (2.5 μg/100 g) added to PTU+IOP
[10] = 2 g/kg glucose, 3 hours, vs placebo

## N[C@@H](Cc1ccc(Oc2cc(I)c(O)c(I)c2)c(I)c1)C(=O)O [rT3, 3′,5′,3-triiodothyronine]
[1]; 3 weeks, PTU+IOP alone vs controls, or rT3 2.5 μg/100 g sc added to PTU+IOP
  Animal mass (body weight): enhances the decrease induced by PTU-IOP
[1]; 3 weeks, PTU-IOP with or without rT3 2.5 μg/100 g
  Appetite (food intake): remains unchanged
[1]; [8]
  Energy expenditure (EE): enhanced
  Respiratory quotient (RQ): enhanced
[1]; [9]
  Activity of mGPdH: stimulates
  Brown adipose tissue mass: also enhanced
  Mitochondrial state 3 respiratory rate with GM, S and GMS: corrected the effect of PTU+IOP
[2]; [10]
  AUC of the glucose concentration after OGTT: significantly reduced
  AUC of the insulin concentration after OGTT: largely enhanced
[2]; 5 first minutes following the OGTT
  Kinetic of blood glucose concentration after OGTT: regulate more rapidly
[2]; 20 min kinetic
  Kinetic of insulin concentration after OGTT: high increase
[2]; vs placebo
  Pancreas mass: increase
[3]; high dosage, intra-peritoneal injection
  Circulating rT3 (degradation): rapidly degraded
[3]; intra-peritoneal injection, after 5 hours
  Circulating rT3 compared to the injected dose: five fold decreased
[3]; per os administration
  Circulating rT3 concentration in blood: never allows to obtain in blood a concentration of rT3 similar with the concentration observed after intra-peritoneal injection
[3]; sub-cutaneous injection
  Circulating rT3 concentration in blood: remains substantially the same as the injected concentration
[3]; sub-cutaneous injection, after 24 hours
  Circulating rT3 (degradation): quasi completely degraded
[4]; 2.5 μg/100 g BW
  Brown adipose tissue mass: increase
  Muscular mass: not affected
  White adipose tissue: seems not to be affected
[4]; low dose of rT3, 21 days, vs placebo
  Fat mass (photography, FIG. 21): reduced
[5]
  Cholesterol level: not influenced
  FFA in blood: significantly enhanced
  Triglycerides in blood: significantly reduced
[6]; 2.5 μg/100 g BW/day, up to 21 days, placebo progressively decreases
  Insulin level (blood insulin concentration): maintained; also recorded: increasing plasmatic insulin concentration
[6]; 2.5 μg/100 g BW/day, vs placebo
  Pancreas mass: increased
[6]; low dose 2.5 μg/100 g BW/day, 8, 16 and 21 days, vs placebo
  Glycaemia (blood glucose concentration): large reduction; also recorded: decreasing glucose concentration
[7]; day and night, effect maximal during the day
  Endogenous (liver) synthesis of lipids: powerful stimulation
[7]; vs placebo
  Hepatic lipogenesis, increase: ~4 fold
